According to ChEMBL document CHEMBL1201862, “PubChem BioAssay data set” (2004):
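Grown in 96-well plates, cells were treated for 48 hours with each compound at five concentrations. Insufficient inhibition: endpoint recorded as highest concentration tested. GI50: concentration for 50% inhibition of growth.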 Calls of active or inactive are those of the source. No stated cut-off is given here; in the data, active = GI50 up to about 1.1 µM and inactive = higher.

Experiments:
Test in all cases: inhibition of tumour cell growth, NCI panel, 48 h
RXF 393 = system: RXF 393
KM-20L2 = system: KM-20L2
OVCAR-3 = system: OVCAR-3
SW-620 = system: SW-620
SNB-19 = system: SNB-19
MOLT-4 = system: MOLT-4
TK-10 = system: TK-10
SK-MEL-5 = system: SK-MEL-5
SR = system: SR
HOP-62 = system: HOP-62
IGROV-1 = system: IGROV-1
OVCAR-5 = system: OVCAR-5
SK-OV-3 = system: SK-OV-3
SNB-75 = system: SNB-75
Malme-3M = system: Malme-3M
SF-268 = system: SF-268
UACC-257 = system: UACC-257
HOP-92 = system: HOP-92
A549 = system: A549
HL-60 = system: HL-60

SMILES | GI50 (RXF 393) | GI50 (KM-20L2) | GI50 (OVCAR-3) | GI50 (SW-620) | GI50 (SNB-19) | GI50 (MOLT-4) | GI50 (TK-10) | GI50 (SK-MEL-5) | GI50 (SR) | GI50 (HOP-62) | GI50 (IGROV-1) | GI50 (OVCAR-5) | GI50 (SK-OV-3) | GI50 (SNB-75) | GI50 (Malme-3M) | GI50 (SF-268) | GI50 (UACC-257) | GI50 (HOP-92) | GI50 (A549) | GI50 (HL-60)
O=C(CC1Sc2ccccc2NC1=O)Nc1ccccc1[N+](=O)[O-] (configuration not stated) | > 100 µM (inactive) | > 100 µM (inactive) | > 100 µM (inactive) | > 100 µM (inactive) | > 100 µM (inactive) | 4.33 µM (inactive) | > 100 µM (inactive) | > 100 µM (inactive) | 12.2 µM (inactive) | > 100 µM (inactive) | > 100 µM (inactive) | > 100 µM (inactive) | > 100 µM (inactive) | > 100 µM (inactive) | > 100 µM (inactive) | > 100 µM (inactive) | > 100 µM (inactive) | > 100 µM (inactive) | > 100 µM (inactive) | > 100 µM (inactive)
Cc1n(CC(=O)c2ccc([N+](=O)[O-])cc2)c2c([n+]1CC(C)C)C(=O)c1ccccc1C2=O | – | < 0.01 µM (active) | < 0.0424 µM (active) | < 0.01 µM (active) | < 0.015 µM (active) | < 0.0204 µM (active) | – | < 0.0106 µM (active) | – | 0.29 µM (active) | < 0.01 µM (active) | < 0.0318 µM (active) | 0.361 µM (active) | < 0.0356 µM (active) | < 0.01 µM (active) | < 0.01 µM (active) | < 0.01 µM (active) | < 0.0226 µM (active) | < 0.0318 µM (active) | < 0.01 µM (active)
c1ccc([P+](Cc2csnn2)(c2ccccc2)c2ccccc2)cc1 | 84.1 µM (inactive) | > 100 µM (inactive) | > 100 µM (inactive) | > 100 µM (inactive) | > 100 µM (inactive) | > 100 µM (inactive) | > 100 µM (inactive) | > 100 µM (inactive) | > 100 µM (inactive) | > 100 µM (inactive) | > 100 µM (inactive) | > 100 µM (inactive) | > 100 µM (inactive) | > 100 µM (inactive) | > 100 µM (inactive) | > 100 µM (inactive) | > 100 µM (inactive) | 80 µM (inactive) | > 100 µM (inactive) | > 100 µM (inactive)
CCCCSCCC(N)P(=O)(O)O (configuration not stated) | – | – | > 100 µM (inactive) | > 100 µM (inactive) | > 100 µM (inactive) | > 100 µM (inactive) | > 100 µM (inactive) | > 100 µM (inactive) | > 100 µM (inactive) | > 100 µM (inactive) | > 100 µM (inactive) | > 100 µM (inactive) | > 100 µM (inactive) | > 100 µM (inactive) | – | – | > 100 µM (inactive) | > 100 µM (inactive) | > 100 µM (inactive) | > 100 µM (inactive)
COc1cccc(CC2Cc3ccccc3CC(=O)N2)c1 (configuration not stated) | 26.8 µM (inactive) | – | 20.4 µM (inactive) | 85.1 µM (inactive) | 90.8 µM (inactive) | 31.3 µM (inactive) | 29.9 µM (inactive) | 20.6 µM (inactive) | > 100 µM (inactive) | 9.18 µM (inactive) | 16.9 µM (inactive) | 11.7 µM (inactive) | 62.8 µM (inactive) | > 100 µM (inactive) | – | 46.2 µM (inactive) | 29.2 µM (inactive) | 24.1 µM (inactive) | 34.1 µM (inactive) | 40.1 µM (inactive)
c1ccc2c(NCCCCCCCCNc3cccc4ccccc34)cccc2c1 | – | 25.2 µM (inactive) | 34 µM (inactive) | 21.1 µM (inactive) | > 100 µM (inactive) | 16.7 µM (inactive) | 24.3 µM (inactive) | > 10 µM (inactive) | – | > 100 µM (inactive) | 49.8 µM (inactive) | 46 µM (inactive) | > 100 µM (inactive) | 21.4 µM (inactive) | 22 µM (inactive) | 65 µM (inactive) | 19.8 µM (inactive) | 18.2 µM (inactive) | > 100 µM (inactive) | 22.7 µM (inactive)
O=S(=O)(c1ccc(I)cc1)N(c1ccccc1)S(=O)(=O)C(F)(F)C(F)(F)C(F)(F)C(F)(F)F | 24.8 µM (inactive) | – | 22.6 µM (inactive) | 34.7 µM (inactive) | 74.3 µM (inactive) | 39.4 µM (inactive) | 14.2 µM (inactive) | – | 56.5 µM (inactive) | 24.3 µM (inactive) | > 100 µM (inactive) | 24.9 µM (inactive) | 26.4 µM (inactive) | – | 18.6 µM (inactive) | – | > 100 µM (inactive) | 15.4 µM (inactive) | 31.5 µM (inactive) | 97.7 µM (inactive)
COc1cccc(NC(=O)CC(=O)NN2C(=O)/C(=C/c3ccc(N(CCC#N)CCC#N)cc3)N=C2c2cc([N+](=O)[O-])ccc2Cl)c1 | > 100 µM (inactive) | 25.8 µM (inactive) | > 100 µM (inactive) | > 100 µM (inactive) | > 100 µM (inactive) | 3.53 µM (inactive) | > 100 µM (inactive) | 42.2 µM (inactive) | 22.4 µM (inactive) | > 100 µM (inactive) | > 100 µM (inactive) | 25.5 µM (inactive) | > 100 µM (inactive) | – | 32.7 µM (inactive) | > 100 µM (inactive) | – | > 100 µM (inactive) | > 100 µM (inactive) | –
CC(=O)Oc1ccccc1[C@H]1CC(=O)C[C@H](c2ccccc2OC(C)=O)C12C(=O)c1ccccc1C2=O | 24.6 µM (inactive) | – | 22.1 µM (inactive) | – | 60.4 µM (inactive) | 17.8 µM (inactive) | – | 22.4 µM (inactive) | 79.4 µM (inactive) | 30.4 µM (inactive) | 44.5 µM (inactive) | 44.2 µM (inactive) | 43 µM (inactive) | 17.9 µM (inactive) | 40 µM (inactive) | – | – | 47.9 µM (inactive) | – | > 100 µM (inactive)
Cc1[nH]c(=O)[nH]c(=O)c1/C=C/C(=O)NC(CO)CC(C)C (configuration not stated) | > 375 µM (inactive) | 88.1 µM (inactive) | 164 µM (inactive) | 351 µM (inactive) | 356 µM (inactive) | 237 µM (inactive) | – | > 375 µM (inactive) | – | > 375 µM (inactive) | > 375 µM (inactive) | > 265 µM (inactive) | > 300 µM (inactive) | 226 µM (inactive) | 233 µM (inactive) | 231 µM (inactive) | > 375 µM (inactive) | 17.5 µM (inactive) | 349 µM (inactive) | > 361 µM (inactive)
COc1ccc(CCn2nccc2C)cc1 | > 100 µM (inactive) | – | > 100 µM (inactive) | > 100 µM (inactive) | > 100 µM (inactive) | > 100 µM (inactive) | > 100 µM (inactive) | > 100 µM (inactive) | > 100 µM (inactive) | > 100 µM (inactive) | > 100 µM (inactive) | > 100 µM (inactive) | > 100 µM (inactive) | 50.7 µM (inactive) | > 100 µM (inactive) | > 100 µM (inactive) | > 100 µM (inactive) | – | > 100 µM (inactive) | > 100 µM (inactive)
COc1ccccc1NC(=O)C(=O)C(C(=O)c1ccccc1F)C1OC(=O)c2ccccc21 (configuration not stated) | 42.9 µM (inactive) | 24.9 µM (inactive) | – | 32.9 µM (inactive) | 19.3 µM (inactive) | 15.5 µM (inactive) | 50 µM (inactive) | 39.1 µM (inactive) | 22.2 µM (inactive) | 30.5 µM (inactive) | 52.6 µM (inactive) | 45.1 µM (inactive) | 35.6 µM (inactive) | 21.9 µM (inactive) | – | 29.9 µM (inactive) | 54.8 µM (inactive) | 42.6 µM (inactive) | 45.3 µM (inactive) | 20.3 µM (inactive)
CC1(Cl)CC2C(CC1Sc1nnnn1-c1ccccc1)C2(C)C (configuration not stated) | 48.9 µM (inactive) | 95.5 µM (inactive) | 38.7 µM (inactive) | > 100 µM (inactive) | 83.2 µM (inactive) | 30.1 µM (inactive) | > 100 µM (inactive) | 58.2 µM (inactive) | 29.6 µM (inactive) | > 100 µM (inactive) | > 100 µM (inactive) | > 100 µM (inactive) | – | – | – | > 100 µM (inactive) | 87.3 µM (inactive) | 58.6 µM (inactive) | 67.1 µM (inactive) | 17.9 µM (inactive)
CSCC[C@@H](NC(=O)[C@H](CC(C)C)NC(=O)C(Cc1cnc[nH]1)NC(=O)CNC(=O)[C@@H](NC(=O)[C@H](C)NC(=O)[C@H](Cc1cn(C=O)c2ccccc12)NC(=O)[C@H](CCC(N)=O)NC(=O)[C@@H](N)CC(N)=O)C(C)C)C(N)=O (some centres not stated) | > 100 µM (inactive) | > 100 µM (inactive) | > 100 µM (inactive) | > 100 µM (inactive) | > 100 µM (inactive) | > 100 µM (inactive) | – | > 100 µM (inactive) | – | > 100 µM (inactive) | > 100 µM (inactive) | > 100 µM (inactive) | > 100 µM (inactive) | > 100 µM (inactive) | > 100 µM (inactive) | > 100 µM (inactive) | > 100 µM (inactive) | – | > 100 µM (inactive) | > 100 µM (inactive)
NCCCCCC(CCN)SCC1OC(n2cnc3c(N)ncnc32)C(O)C1O (configuration not stated) | 1060 µM (inactive) | 482 µM (inactive) | > 1500 µM (inactive) | > 1500 µM (inactive) | 615 µM (inactive) | 551 µM (inactive) | – | > 1110 µM (inactive) | – | > 809 µM (inactive) | 1180 µM (inactive) | > 1500 µM (inactive) | 927 µM (inactive) | > 1500 µM (inactive) | > 1280 µM (inactive) | 1460 µM (inactive) | > 1260 µM (inactive) | > 618 µM (inactive) | > 1500 µM (inactive) | 519 µM (inactive)
